The values below come from patent US20240308960A1 (Sumitomo Pharma Co., Ltd., priority 2021, published 2024).

Structures are written as SMILES.

In the first assay the target is T1, Human orexin receptor type 2 (Homo sapiens, UniProt O43614).
T1 sequence (O43614 1-444): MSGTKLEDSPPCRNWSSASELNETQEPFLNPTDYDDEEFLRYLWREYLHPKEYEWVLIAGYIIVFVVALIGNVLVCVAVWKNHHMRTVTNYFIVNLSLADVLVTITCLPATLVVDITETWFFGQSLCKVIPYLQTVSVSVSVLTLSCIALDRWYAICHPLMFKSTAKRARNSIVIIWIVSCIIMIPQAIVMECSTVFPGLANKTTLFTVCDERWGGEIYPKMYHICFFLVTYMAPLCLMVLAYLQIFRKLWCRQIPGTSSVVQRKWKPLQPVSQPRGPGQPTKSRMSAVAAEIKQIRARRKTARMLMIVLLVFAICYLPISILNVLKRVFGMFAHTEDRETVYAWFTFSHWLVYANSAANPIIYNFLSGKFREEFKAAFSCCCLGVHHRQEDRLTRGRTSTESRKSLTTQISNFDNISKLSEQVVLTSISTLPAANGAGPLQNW
Description: Test Example 1: agonist activity for orexin receptor type 2 (aequorin luminescence, intracellular calcium mobilization). To be noted: compound 10 μm; CHO cells transiently expressing human orexin receptor type 2 and apoaequorin; relative percentage of luminescence for the luminescence (100%) of Orexin A (100 μM). (A change in cytosolic calcium serves as a functional read-out for many receptors and channels.)
With `CC(C)c1ccc(C2CCN(C(=O)Nc3c(F)cccc3N3CCN(C(C)C)CC3)CC2)cc1` [Example 40, N-{2-fluoro-6-[4-(propan-2-yl)piperazin-1-yl]phenyl}-4-[4-(propan-2-yl)phenyl]piperidine-1-carboxamide], the “Agonist Activity (%)” value was determined as 122%.

For `CCN1C[C@@H]2C[C@H]1CN2c1cccc(F)c1NC(=O)N1CCC(C)(c2noc(C3CC3)n2)CC1` [Example 149, 4-(5-cyclopropyl-1,2,4-oxadiazol-3-yl)-N-{2-[(1S,4S)-5-ethyl-2,5-diazabicyclo[2.2.1]heptan-2-yl]-6-fluorophenyl}-4-methylpiperidine-1-carboxamide], the “Agonist Activity (%)” value stood at 146%.

On to `CC(C)N1CCN(c2cccc(Cl)c2NC(=O)N2CCC(C)(c3noc(C4CC4)c3Cl)CC2)CC1` [Example 103, 4-(4-chloro-5-cyclopropyl-1,2-oxazol-3-yl)-N-{2-chloro-6-[4-(propan-2-yl)piperazin-1-yl]phenyl}-4-methylpiperidine-1-carboxamide], for which the “Agonist Activity (%)” value came out at 178%.

In the case of `Cc1ccc(C2CCN(C(=O)Nc3cccc(F)c3N3CCN(C(C)C)CC3)CC2)cc1` [Example 11, N-{3-fluoro-2-[4-(propan-2-yl)piperazin-1-yl]phenyl}-4-(4-methylphenyl)piperidine-1-carboxamide], the “Agonist Activity (%)” value was found to be 142%.

Turning to `CC(C)N1CCN(c2cccc(Cl)c2NC(=O)N2CCC(C)(c3nc4ccccc4o3)CC2)CC1` [Example 66, 4-(1,3-benzoxazol-2-yl)-N-{2-chloro-6-[4-(propan-2-yl)piperazin-1-yl]phenyl}-4-methylpiperidine-1-carboxamide], the “Agonist Activity (%)” value is 129%.

In the case of `CC(C)N1CCN(c2cccc(Cl)c2NC(=O)N2CCC(C)(c3noc(C4CC4)n3)CC2)CC1` [Example 67, N-{2-chloro-6-[4-(propan-2-yl)piperazin-1-yl]phenyl}-4-(5-cyclopropyl-1,2,4-oxadiazol-3-yl)-4-methylpiperidine-1-carboxamide], the “Agonist Activity (%)” value is recorded as 154%.

As for `CCN1CCCN(c2ccccc2NC(=O)N2CCC(c3ccc(C)cc3)CC2)CC1` [Example 153, N-[2-(4-ethyl-1,4-diazepan-1-yl)phenyl]-4-(4-methylphenyl)piperidine-1-carboxamide], the “Agonist Activity (%)” value amounted to 54%.

For `Cc1noc(C2(C)CCN(C(=O)Nc3ccccc3N3CCN(C(C)C)CC3)CC2)n1` [Example 162, 4-Methyl-4-(3-methyl-1,2,4-oxadiazol-5-yl)-N-{2-[4-(propan-2-yl)piperazin-1-yl]phenyl}piperidine-1-carboxamide], the “Agonist Activity (%)” value is 100%.

Turning to `COc1cccc(N2CCN(C(C)C)CC2)c1NC(=O)N1CCC(c2ccc(C(F)(F)F)cc2)CC1` [Example 15, N-{2-methoxy-6-[4-(propan-2-yl)piperazin-1-yl]phenyl}-4-[4-(trifluoromethyl)phenyl]piperidine-1-carboxamide], the “Agonist Activity (%)” value came out at 101%.

In the case of `CCOc1cccc(C2CCN(C(C)C)CC2)c1NC(=O)N1CCC(c2ccc(C)cc2)CC1` [Example 127, N-{2-ethoxy-6-[1-(propan-2-yl)piperidin-4-yl]phenyl}-4-(4-methylphenyl)piperidine-1-carboxamide], the “Agonist Activity (%)” value was determined as 145%.

As to `CCc1nc(C2(C)CCN(C(=O)Nc3c(Cl)cccc3N3CCN(C(C)C)CC3)CC2)no1` [Example 83, N-{2-chloro-6-[4-(propan-2-yl)piperazin-1-yl]phenyl}-4-(5-ethyl-1,2,4-oxadiazol-3-yl)-4-methylpiperidine-1-carboxamide], the “Agonist Activity (%)” value turned out to be 146%.

For `CC(C)N1CCN(c2cccc(Cl)c2NC(=O)N2CCC(C)(c3noc(CC4CC4)n3)CC2)CC1` [Example 105, N-{2-chloro-6-[4-(propan-2-yl)piperazin-1-yl]phenyl}-4-[5-(cyclopropylmethyl)-1,2,4-oxadiazol-3-yl]-4-methylpiperidine-1-carboxamide], the “Agonist Activity (%)” value was found to be 165%.

Take `Cc1ccc(-c2cccc(F)c2NC(=O)N2CCC(C)(c3cc(C4CC4)on3)CC2)cn1` [Example 68, 4-(5-cyclopropyl-1,2-oxazol-3-yl)-N-[2-fluoro-6-(6-methylpyridin-3-yl)phenyl]-4-methylpiperidine-1-carboxamide]: the “Agonist Activity (%)” value is 68%.

Turning to `Cc1ccc(C2CCN(C(=O)Nc3c(F)cccc3C3=CCN(C)C3)CC2)cc1` [Example 140, N-[2-fluoro-6-(1-methyl-2,5-dihydro-1H-pyrrol-3-yl)phenyl]-4-(4-methylphenyl)piperidine-1-carboxamide], the “Agonist Activity (%)” value is on record as 75%.

Consider `Cc1ccc(C2CCN(C(=O)Nc3c(F)cccc3C3CCN(C(C)C)CC3)CC2)cc1` [Example 39, N-{2-fluoro-6-[1-(propan-2-yl)piperidin-4-yl]phenyl}-4-(4-methylphenyl)piperidine-1-carboxamide], for which the “Agonist Activity (%)” value was 106%.

The next assay concerns the target T1, Human orexin receptor type 2. Kind of assay: Test Example 2: agonist activity for orexin receptor type 2 (aequorin luminescence, intracellular calcium mobilization). In kind it is cell-based. To be noted: compound 10 μm; CHO cells transiently expressing human orexin receptor type 2 and apoaequorin; relative percentage of luminescence for the luminescence (100%) of Orexin A (100 pM). More on the design: expressed in transfected cells; host or cells: CHO cells (transient expression). How it is done: Test Example 2: Measurement of Agonist Activity for Orexin Receptor 2 Type
Human orexin receptor type 2 and apoaequorin were transiently expressed in CHO cells, and the agonist activity was evaluated based on intracellular calcium mobilization with ligand stimulation. The CHO cells transiently-expressed human orexin receptor type 2 and apoaequorin were seeded on a 384-well plate by 2,000 cells/well, and then incubated for 16-22 hours. After the plate was returned to room temperature, Coelenterazine hcp (final concentration: 1 μM) was added to the plate, and the plate was allowed to stand at room temperature for 2 hours. And then, Orexin A (PEPTIDE INSTITUTE, INC., Lot. 671009) or each test compound was added to the plate, and the luminescence of the cells was measured with FDSS7000 (Hamamatsu Photonics K. K.), wherein Orexin A and each test compound were dissolved in DMSO (final concentration: 0.1%), and diluted with a buffer (Hanks, 20 mM HEPES, 0.1% BSA).
As for `CC(C)N1CCN(c2cccc(Cl)c2NC(=O)N2C[C@H]3C[C@H](c4noc(C5CC5)n4)C[C@H]3C2)CC1` [Example 169, (3aR,5s,6aS)-N-{2-chloro-6-[4-(propan-2-yl)piperazin-1-yl]phenyl}-5-(5-cyclopropyl-1,2,4-oxadiazol-13-yl) hexahydrocyclopenta [c]pyrrol-2 (1H)-carboxamide], the “Agonist Activity (%)” value worked out at 444%.

As for `CC(C)N1CCN(c2cccc(Cl)c2NC(=O)N2C[C@H]3C[C@@H](c4noc(C5CC5)n4)C[C@H]3C2)CC1` [Example 170, (3aR,5r,6aS)-N-{2-chloro-6-[4-(propan-2-yl)piperazin-1-yl]phenyl}-5-(5-cyclopropyl-1,2,4-oxadiazol-13-yl) hexahydrocyclopenta [c]pyrrol-2 (1H)-carboxamide], the “Agonist Activity (%)” value came to 357%.
